This is an account of results in patent US6632816B1, “Aromatic derivatives as HIV aspartyl protease inhibitors” (Pharmacor Inc., priority 2002, dated 2003).

As usually defined, the Ki is a measure of affinity in units of concentration, obtained from inhibition or displacement. Read a high Ki as weaker binding.

The target in the assay is HIV protease (Human immunodeficiency virus type 1 group M subtype B, UniProt P04585). Briefly: biochemical.

Excerpt: Enzymatic Assay for Determining the Inhibition Constant (Ki) of Synthetic Compounds Targeting the HIV Protease
This is a fluorometric assay based on the cleavage by protease of a substrate carrying a donor group (EDANS) and an acceptor group (DABCYL) on each side of the cleavage site, interacting together through fluorescence resonance energy transfer (FRET) as described by Matayoshi et al. (Science 247:954-954, 1990).
After calculation of Vo and Vi, the inhibition constant (Ki) of the compound is determined using the equation of Henderson: [formula]
where Vo=the enzyme's initial velocity
Vi=the enzyme velocity in the presence of the inhibitory compound,
[I]=inhibitor concentration, [S]=substrate concentration,
Km=Michaelis-Menten constant and Kiapp=apparent Ki
Graphs are traced and the Ki determined using GraphPad Prism software v.

For the molecule `COCC(=O)N[C@@H](Cc1cccc2ccccc12)C(=O)NCCC[C@@H](CO)N(CC(C)C)S(=O)(=O)c1ccc(N)cc1` [Example 19, (2S,4S)-N-{4-[(4-Amino-benzenesulfonyl)-isobutyl-amino]-5-hydroxy-pentyl}-2-(2-methoxy-acetylamino)-3-naphthalen-1-yl-propionamide], the affinity, expressed as Ki, was 2.6 nM. This counts as single-digit nanomolar. Molecule `CCCCN[C@@H](Cc1cccc2ccccc12)C(=O)NCCC[C@@H](CO)N(CC(C)C)S(=O)(=O)c1ccc(N)cc1` [Example 20, (2S,4S)-N-{4-[(4-Amino-benzenesulfonyl)-isobutyl-amino]-5-hydroxy-pentyl}-2-butylamino-3-naphthalen-1-yl-propionamide] showed a Ki of 4.4 nM.

In the case of `CC(=O)OCCN[C@@H](Cc1cccc2ccccc12)C(=O)NCCC[C@@H](CO)N(CC(C)C)S(=O)(=O)c1ccc(N)cc1` [Example 21, (1S,4S)-Acetic Acid 2-(1-{4-[(4-Amino-benzenesulfonyl)-isobutyl-amino]-5-hydroxy-pentylcarbamoyl}-2-naphthalen-1-yl-ethylamino)-ethyl Ester], the affinity corresponds to a Ki of 3.9 nM. For `CCCN[C@@H](Cc1cccc2ccccc12)C(=O)NCCC[C@@H](CO)N(CC(C)C)S(=O)(=O)c1ccc(N)cc1` [Example 22, (2S,4S)-N-{4-[(4-Amino-benzenesulfonyl)-isobutyl-amino]-5-hydroxy-pentyl}-3-naphthalen-1-yl-2-propylamino-propionamide], the Ki turned out to be 2.5 nM. In the case of `CC(C)CN([C@H](CO)CCCNC(=O)[C@H](Cc1cccc2ccccc12)NC(=O)C1CCCC1)S(=O)(=O)c1ccc(N)cc1` [Example 23, (1S,4S)-Cyclopentanecarboxylic Acid (1-{4-[(4-Amino-benzenesulfonyl)-isobutyl-amino]-5-hydroxy-pentylcarbamoyl}-2-naphthalen-1-yl-ethyl)-amide], affinity was put at a Ki of 2 nM.

In the case of `CC(C)CN([C@H](CO)CCCNC(=O)[C@@H](N)C(c1ccccc1)c1ccccc1)S(=O)(=O)c1ccc(N)cc1` [Example 24, (2S,4S)-2-Amino-N-{4-[(4-amino-benzenesulfonyl)-isobutyl-amino]-5-hydroxy-pentyl}-3,3-diphenyl-propionamide], the Ki amounted to 7.5 nM. This Ki is about 3.8-fold higher than that of the molecule before.

Regarding `CC(C)CN[C@@H](Cc1cccc2ccccc12)C(=O)NCCC[C@@H](CO)N(CC(C)C)S(=O)(=O)c1ccc(N)cc1` [Example 25, (2S,4S)-N-{4-[(4-Amino-benzenesulfonyl)-isobutyl-amino]-5-hydroxy-pentyl}-2-isobutylamino-3-naphthalen-1-yl-propionamide], affinity was put at a Ki of 3.7 nM. Against the preceding molecule, the Ki is about 2-fold lower. In turn, `CCN[C@@H](Cc1cccc2ccccc12)C(=O)NCCC[C@@H](CO)N(CC(C)C)S(=O)(=O)c1ccc(N)cc1` [Example 26, (2S,4S)-N-{4-[(4-Amino-benzenesulfonyl)-isobutyl-amino]-5-hydroxy-pentyl}-2-ethylamino-3-naphthalen-1-yl-propionamide] registered an inhibition constant Ki of 3 nM. Take `CC(C)CN([C@H](CO)CCCNC(=O)[C@H](Cc1cccc2ccccc12)NCC(=O)O)S(=O)(=O)c1ccc(N)cc1` [Example 27, (1S,4S)-(1-{4-[(4-Amino-benzenesulfonyl)-isobutyl-amino]-5-hydroxy-pentylcarbamoyl}-2-naphthalen-1-yl-ethylamino)-acetic Acid]: affinity was put at a Ki of 2.5 nM. Turning to `COC(=O)N[C@@H](Cc1cccc2ccccc12)C(=O)NCCCC[C@@H](CO)N(CC(C)C)S(=O)(=O)c1ccc(N)cc1` [Example 28, (1S,5S)-(1-{5-[(4-Amino-benzenesulfonyl)-isobutyl-amino]-6-hydroxy-hexylcarbamoyl}-2-naphthalen-1-yl-ethyl)-carbamic Acid Methyl Ester], affinity was put at a Ki of 1.2 nM.

In the case of `COC(=O)N[C@@H](Cc1ccc2ccccc2c1)C(=O)NCCCC[C@@H](CO)N(CC(C)C)S(=O)(=O)c1ccc(N)cc1` [Example 29, (1S,5S)-(1-{5-[(4-Amino-benzenesulfonyl)-isobutyl-amino]-6-hydroxy-hexylcarbamoyl}-2-naphthalen-2-yl-ethyl)-carbamic Acid Methyl Ester], the inhibitory constant (Ki) amounted to 1.2 nM. To `CC(C)CN([C@H](CO)CCCCNC(=O)[C@H](Cc1ccc2ccccc2c1)NC(=O)C1CCCCC1)S(=O)(=O)c1ccc(N)cc1` [Example 42, (1S,5S)-Cyclohexanecarboxylic Acid (1-{5-[(4-Amino-benzenesulfonyl)-isobutyl-amino]-6-hydroxy-hexylcarbamoyl}-2-naphthalen-2-yl-ethyl)-amide] belongs 1.2 nM; to `CC(C)CN([C@H](CO)CCCCNC(=O)[C@@H](N)Cc1ccc2ccccc2c1)S(=O)(=O)c1ccc(N)cc1` [Example 49, (2S,5S)-2-Amino-N-{5-[(4-amino-benzenesulfonyl)-isobutyl-amino]-6-hydroxy-hexyl}-3-naphthalen-2-yl-propionamide], 1.3 nM; to `COC(=O)N[C@@H](Cc1ccccc1-c1cccc(F)c1)C(=O)NCCCC[C@@H](CO)N(CC(C)C)S(=O)(=O)c1ccc(N)c(Cl)c1` [Example 57, (1S,5S)-[1-{5-[(4-Amino-3-chloro-benzenesulfonyl)-isobutyl-amino]-6-hydroxy-hexylcarbamoyl}-2-(3′-fluoro-biphenyl-2-yl)-ethyl]-carbamic Acid Methyl Ester], 1.7 nM. Consider `CC(C)CN([C@H](CO)CCCCNC(=O)[C@H](Cc1ccc(-c2ccccc2)cc1)NC(=O)OC(C)(C)C)S(=O)(=O)c1ccc(N)cc1` [Example 59, (1S,5S)-(1-{5-[(4-Amino-benzenesulfonyl)-isobutyl-amino]-6-hydroxy-hexylcarbamoyl}-2-biphenyl-4-yl-ethyl)-carbamic Acid tert-Butyl Ester], for which the Ki was determined as 6 nM. To `CC(C)CN([C@H](CO)CCCCNC(=O)[C@H](Cc1ccc2ccccc2c1)NC(=O)C1CCCC1)S(=O)(=O)c1ccc(N)cc1` [Example 60, (1S,5S)-Cyclopentanecarboxylic Acid (1-{5-[(4-Amino-benzenesulfonyl)-isobutyl-amino]-6-hydroxy-hexylcarbamoyl}-2-naphthalen-2-yl-ethyl)-amide] belongs 1.9 nM; to `CC(C)CN[C@@H](Cc1ccc2ccccc2c1)C(=O)NCCCC[C@@H](CO)N(CC(C)C)S(=O)(=O)c1ccc(N)cc1` [Example 63, (2S,5S)-N-{5-[(4-Amino-benzenesulfonyl)-isobutyl-amino]-6-hydroxy-hexyl}-2-isobutylamino-3-naphthalen-2-yl-propionamide], 3.9 nM. `CCCN[C@@H](Cc1ccc2ccccc2c1)C(=O)NCCCC[C@@H](CO)N(CC(C)C)S(=O)(=O)c1ccc(N)cc1` [Example 64, (2S,5S)-N-{5-[(4-Amino-benzenesulfonyl)-isobutyl-amino]-6-hydroxy-hexyl}-3-naphthalen-2-yl-2-propylamino-propionamide] came in with a Ki of 4.6 nM.

Regarding `CCN[C@@H](Cc1ccc2ccccc2c1)C(=O)NCCCC[C@@H](CO)N(CC(C)C)S(=O)(=O)c1ccc(N)cc1` [Example 65, (2S,5S)-N-{5-[(4-Amino-benzenesulfonyl)-isobutyl-amino]-6-hydroxy-hexyl}-2-ethylamino-3-naphthalen-2-yl-propionamide], the affinity corresponds to a Ki of 6.2 nM. As to `CCCCN[C@@H](Cc1ccc2ccccc2c1)C(=O)NCCCC[C@@H](CO)N(CC(C)C)S(=O)(=O)c1ccc(N)cc1` [Example 68, (2S,5S)-N-{5-[(4-Amino-benzenesulfonyl)-isobutyl-amino]-6-hydroxy-hexyl}-2-butylamino-3-naphthalen-2-yl-propionamide], affinity was put at a Ki of 5.8 nM. In turn, `CC(C)CN([C@H](CO)CCCCNC(=O)[C@H](Cc1ccc2ccccc2c1)NCC(C)(C)C)S(=O)(=O)c1ccc(N)cc1` [Example 69, (2S,5S)-N-{5-[(4-Amino-benzenesulfonyl)-isobutyl-amino]-6-hydroxy-hexyl}-2-(2,2-dimethyl-propylamino)-3-naphthalen-2-yl-propionamide] registered a Ki of 22 nM. For `CC(C)CN([C@H](CO)CCCCNC(=O)[C@H](Cc1ccc2ccccc2c1)NCc1ccccn1)S(=O)(=O)c1ccc(N)cc1` [Example 70, (2S,5S)-N-{5-[(4-Amino-benzenesulfonyl)-isobutyl-amino]-6-hydroxy-hexyl}-3-naphthalen-2-yl-2-[(pyridin-2-ylmethyl)-amino]-propionamide], the inhibition constant (Ki) worked out at 4.9 nM. `CC(C)CN([C@H](CO)CCCCNC(=O)[C@@H](N)C(c1ccccc1)c1ccccc1)S(=O)(=O)c1ccc(N)cc1` [Example 72, (2S,5S)-2-Amino-N-{5-[(4-amino-benzenesulfonyl)-isobutyl-amino]-6-hydroxy-hexyl}-3,3-diphenyl-propionamide] gave an inhibition constant (Ki) of 7.5 nM. On to `CC(C)CN([C@H](CO)CCCCNC(=O)[C@@H](N)Cc1ccc2ccccc2c1)S(=O)(=O)c1ccc(F)c(N)c1` [Example 81, (2S,5S)-2-Amino-N-{5-[(3-amino-4-fluoro-benzenesulfonyl)-isobutyl-amino]-6-hydroxy-hexyl}-3-naphthalen-2-yl-propionamide], for which the inhibition constant Ki was less than 3.8 nM. Then `COC(=O)N[C@@H](Cc1ccc2ccccc2c1)C(=O)NCCCC[C@@H](CO)N(CC(C)C)S(=O)(=O)c1ccc(F)c(N)c1` [Example 82, (1S,5S)-(1-{5-[(3-Amino-4-fluoro-benzenesulfonyl)-isobutyl-amino]-6-hydroxy-hexylcarbamoyl}-2-naphthalen-2-yl-ethyl)-carbamic Acid Methyl Ester], with less than 3.8 nM; and `CC(C)CN([C@H](CO)CCCCNC(=O)[C@H](Cc1ccc2ccccc2c1)NC(=O)c1cccnc1)S(=O)(=O)c1ccc(F)c(N)c1` [Example 83], with less than 3.8 nM; and `CC(C)CN([C@H](CO)CCCCNC(=O)[C@H](Cc1ccc2ccccc2c1)NC(=O)c1ccncc1)S(=O)(=O)c1ccc(F)c(N)c1` [Example 84, (1S,5S)-N-(1-{5-[(3-Amino-4-fluoro-benzenesulfonyl)-isobutyl-amino]-6-hydroxy-hexylcarbamoyl}-2-naphthalen-2-yl-ethyl)-isonicotinamide], with less than 3.8 nM.

The molecule `CC(C)CN([C@H](CO)CCCCNC(=O)[C@H](Cc1ccc2ccccc2c1)NC(=O)C1CCOC1)S(=O)(=O)c1ccc(F)c(N)c1` (stereo partly drawn) [Example 85, (1S,5S)-Tetrahydro-furan-3-carboxylic Acid (1-{5-[(3-Amino-4-fluoro-benzenesulfonyl)-isobutyl-amino]-6-hydroxy-hexylcarbamoyl}-2-naphthalen-2-yl-ethyl)-amide] returned an inhibition constant (Ki) of less than 3.8 nM.
